# Test results reported in PMC3935314 (Biochemical pharmacology, 2013).
# Biological target: GPR55 (Homo sapiens, UniProt Q9Y2T6)
# Assay: saturable fluorescent ligand uptake in live cells, reduced by GPR55 siRNA
# Type: cell-based
# GPR55, sequence (Q9Y2T6 whole entry): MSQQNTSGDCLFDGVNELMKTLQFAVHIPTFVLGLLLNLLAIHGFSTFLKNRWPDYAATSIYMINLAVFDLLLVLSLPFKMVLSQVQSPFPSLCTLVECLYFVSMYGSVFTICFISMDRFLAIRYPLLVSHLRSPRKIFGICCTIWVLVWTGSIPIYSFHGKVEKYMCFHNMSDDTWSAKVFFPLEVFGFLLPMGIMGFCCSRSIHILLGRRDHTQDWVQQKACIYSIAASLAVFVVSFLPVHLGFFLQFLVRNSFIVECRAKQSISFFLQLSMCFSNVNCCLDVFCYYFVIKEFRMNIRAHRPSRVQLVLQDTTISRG
substance,measurement,value
Tocrifluor 1117 [T1117],EC50,~8 nM
